Reference: patent US20190117657A1, “METHOD OF INHIBITING HIGH FAT DIET-RELATED CONDITIONS” (South Australian Health and Medical Research Institute …, priority 2016, published 2019)
Entries after “also recorded” stand apart in the source; their conditions may differ. Counter-ions that a name gives are not always drawn.

Assays:
MNKs = experiment: eIF4E phosphorylation (P-eIF4E immunoblot) in 3T3-L1 cells as read-out of MNK activity; assay type: cell-based; conditions: immunoblot
Description: Similar data obtained in three replicate experiments.
The term “MNK inhibitor” as used herein is intended to refer to any compound that reduces the biological activity of MNK1 (including reducing the biological activity of one or both of splice variants MNK1 a and MNK1b) and/or MNK2 (including reducing the biological activity of one or both of splice variants MNK2a and MNK2b), including by reducing the amount of MNK1 and/or MNK2 expressed. For example, the MNK inhibitor may be a small organic molecule (also referred to as a “small molecule” herein), a peptide antagonist, an inhibitory antibody or fragment thereof, an interfering nucleotide molecule, an aptamer or other MNK inhibitor that inhibits the expression or biological activity as would be understood by those skilled in the art. The biological activity of MNK1 and MNK2 can be measured in a variety of ways, for example, by measuring phosphorylation of its substrate eIF4E to P-eIF4E using any suitable method known to those skilled in the art, for example, by performing an immunoblot or ELISA utilising a specific anti-P-eIF4E antibody, for example, the anti-phospho eIF4E (Ser209) antibody distributed by Merck Millipore, Catalogue No. 07-823 (Merck Millipore, Billerica, Mass., United States of America). […] Those skilled in the art will be aware of how to conduct suitable controls when measuring P-eIF4E levels. The MNK1 and/or MNK2 bioactivity can otherwise be measured using a cellular assay that can detect levels of MNK1 and/or MNK2 bioactivity. Antibodies that specifically detect phosphorylated MNK could also be used, for example, anti-P-MNK1 (Phospho-Mnk1 (Thr197/202) Antibody #2111; Cell Signaling Technology Inc, Danvers, Mass., United States of America). Additionally, those skilled in the art will appreciate that the MNK inhibitors should be safe for use for its intended purpose.
Tissues were harvested in RIPA lysis buffer containing 50 mM TrisHCl, pH 7.4, 150 mM NaCl, 1% Triton X-100, 0.1% sodium deoxycholate, 0.1% sodium dodecyl sulfate, 1 mM ethylenediaminetetraaacteic acid (EDTA), 50 mM β-glycerolphosphate, 0.5 mM NaVO3, 0.1% 2-mercaptoethanol and protease inhibitors (Roche). After lysis, insoluble material was removed by centrifugation at 12,000 g for 10 min at 4° C. Protein content was determined by the Bradford protein assay (Bio-Rad). Immunoblotting was performed as described in Liu et al. (2014). Blots were visualised using a LI-COR Odyssey® Quantitative Imaging System. Primary antibodies as indicated in Table 5 were from Cell Signaling Technologies, except for anti-P-eIF4E (Merck Millipore). Secondary antibodies were obtained from Thermo Fisher Scientific Inc. (Waltham, Mass., United States of America) and used at 1:20,000 dilution.
MNKs are the only kinases known to phosphorylate eIF4E, and accordingly, the phosphorylation of eIF4E (P-eIF4E) provides a direct read-out of MNK biological activity.
Since eIF4E is only phosphorylated by the MNKs, its phosphorylation status is a reliable read-out of intracellular MNK activity. […] MNK2 is the main MNK in 3T3-L1 cells and in adipose tissue (Moore et al., 2016). In additional studies, tests were conducted to assess the effect of the MNK-I2 inhibitor on the induction of differentiation markers in 3T3-L1 cells.

3T3-L1 cells [1] = experiment: Lipid accumulation in differentiating 3T3-L1 cells (Oil Red O / triglyceride); assay type: cell-based; conditions: 20 μM, 3T3-L1 cells differentiated 9 days
Experimental: (§1) For induction of 3T3-L1 (fibroblast) cell differentiation, pre-adipocytes were grown to 2 days post-confluence in DMEM supplemented with 10% FBS (day 0) and the medium was changed to DMEM supplemented with 10% FBS, insulin (167 nM), dexamethasone (0.5 μM), isobutylmethylxanthine (IBMX) (0.5 mM) and rosiglitazone (2 μM). After 48 h, the medium was replaced with medium containing DMEM supplemented with 10% (v/v) FBS and 167 nM insulin. On day 4, after inducing differentiation, and thereafter, the cells were cultured in DMEM with 10% FBS. The maintenance medium was changed every 48 h until the cells were utilised for experimentation (9 days from the initiation of differentiation).
Assessment of intracellular triglyceride levels was performed using Oil Red O staining as described by others (Smith et al., 1988). Briefly, on day 9 of differentiation of the 3T3-L1 cells were fixed in 10% formalin for 1 hour. […] For quantification, cells were washed extensively with water to remove unbound dye, and 1 ml isopropanol was added to the stained 6-well culture plate. After 5 min, the absorbance of the oil red extract at 510 nm was measured, with an increased absorbance indicative of an increased lipid level within the cells.
The amount of tissue-released triglyceride (TAG) was measured using a Triglyceride Quantification Kit (Abcam, ab65336).

3T3-L1 cells [2] = experiment: Induction of adipogenic gene mRNAs in differentiating 3T3-L1 cells (RT-qPCR); assay type: cell-based; conditions: 20 μM, day 3 and 6 of differentiation
Experimental: Total RNA was isolated from tissues (frozen at the time of sampling) using Trizol reagent (Sigma-Aldrich) according to the manufacturer's instructions. RNA concentrations were determined by absorbance at 260 nm, while quality and integrity were evaluated via 260/230 and 260/280 ratios using a NanoDrop spectrophotometer (Thermo Fisher Scientific). RT-real time PCR amplification was carried out using the ImProm-II Reverse Transcription System (A3800; Promega, Madison, Wis., United States of America) with random primers following the manufacturer's protocol. Subsequently, real-time quantitative (q) PCR was performed using primer sequences described in Supplemental Table S1 of Moore CEJ et al., 2016, the content of which is hereby incorporated by reference in its entirety). The comparative CT method was used to measure the amplification of target mRNA levels compared with […] (B2M) mRNA. In FIG. 1A, the relative amount of each transcript was determined using the equation 2^−dCt, where dCt=(Ct target gene-Ct ref gene), and Ct=cycle threshold.
as §1
In order to study the role of MNK2 in adipocyte differentiation, 3T3-L1 cells were used in a similar manner to that described in Example 1. […]

3T3L1 cells = experiment: Lipolysis assay (glycerol release) in differentiated 3T3-L1 cells; assay type: cell-based; conditions: cells differentiated in presence vs absence of compound
Experimental: 3T3L1 cells were differentiated as described above for 9 days. The lipolysis assay was performed according to the manufactures instructions (Abcam Lipolysis assay kit, ab185433, Abcam). Briefly, after differentiation cells were washed two times with lipolysis assay buffer. Lipolysis was stimulated using 100 nM isoproterenol for 3 h. The amount of glycerol released was measured using colorimetric intensity.

other protein kinases = conditions: cited from earlier work
MNK1 = MNK1 (Homo sapiens, UniProt Q9BUB5); conditions: cited from earlier work
MNK2 = MNK2 (Homo sapiens, UniProt Q9HBH9); conditions: cited from earlier work
Sequence of MNK2 (Q9HBH9 whole entry, species assumed): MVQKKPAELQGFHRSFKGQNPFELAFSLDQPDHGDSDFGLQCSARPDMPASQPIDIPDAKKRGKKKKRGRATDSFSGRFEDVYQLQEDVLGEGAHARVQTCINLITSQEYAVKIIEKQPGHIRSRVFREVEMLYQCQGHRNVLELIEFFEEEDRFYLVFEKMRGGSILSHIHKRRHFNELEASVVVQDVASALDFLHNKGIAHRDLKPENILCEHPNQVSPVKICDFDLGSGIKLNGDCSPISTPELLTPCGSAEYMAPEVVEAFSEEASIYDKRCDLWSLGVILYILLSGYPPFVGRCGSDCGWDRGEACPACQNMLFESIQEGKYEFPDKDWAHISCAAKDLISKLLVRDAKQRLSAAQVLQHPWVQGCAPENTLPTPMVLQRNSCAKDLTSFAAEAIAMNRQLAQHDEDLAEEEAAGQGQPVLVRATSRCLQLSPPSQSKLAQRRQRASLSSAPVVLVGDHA

Sequence of MNK1 (Q9BUB5 whole entry, species assumed): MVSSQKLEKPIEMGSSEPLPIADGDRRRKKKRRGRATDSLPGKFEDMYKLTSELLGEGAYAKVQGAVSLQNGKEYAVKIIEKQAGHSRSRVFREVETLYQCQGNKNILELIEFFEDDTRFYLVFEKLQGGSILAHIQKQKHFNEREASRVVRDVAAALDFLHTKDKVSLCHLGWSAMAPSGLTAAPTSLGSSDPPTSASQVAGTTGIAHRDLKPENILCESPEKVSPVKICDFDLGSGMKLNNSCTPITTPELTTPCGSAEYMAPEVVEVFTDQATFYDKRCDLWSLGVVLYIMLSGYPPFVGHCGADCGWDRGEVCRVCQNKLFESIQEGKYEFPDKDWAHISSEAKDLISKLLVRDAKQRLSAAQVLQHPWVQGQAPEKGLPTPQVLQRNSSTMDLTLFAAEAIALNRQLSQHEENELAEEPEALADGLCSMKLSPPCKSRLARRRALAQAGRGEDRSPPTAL

Nc1ncnc2[nH]nc(Nc3ccc(F)cc3)c12 [CGP57380, N3-(4-Fluorophenyl)-1H-pyrazolo-[3,4-d]pyrimidine-3,4-diamine]
inhibition of P-eIF4E / MNK activity (MNKs): almost completely blocking MNK activity
accumulation of lipid (Oil Red O) (3T3-L1 cells [1]): inhibited the accumulation of lipid; also recorded: markedly inhibited
induction of adipogenic genes (PPARγ, C/EBPα, SREBP1c, GLUT4, CD36 mRNA) (3T3-L1 cells [2]): substantially blocked the induction of all of these genes; also recorded: impairs the induction of key transcription factors; also recorded: inhibits the expression of the glucose and lipid transporters GLUT4 and CD36; also recorded: inhibited expression of a number of genes required for adipocyte differentiation
glycerol released in lipolysis assay (3T3L1 cells): less glycerol was released
inhibition of other protein kinases (other protein kinases): inhibit other protein kinases in addition to the MNKs

c1cc(-c2cc(C3CCNCC3)[nH]n2)ccn1 [ETP 45835 dihydrochloride, 4-[5-(4-Piperidinyl)-1H-pyrazol-3-yl]pyridine dihydrochloride]
IC50 (MNK1): 575 nM
IC50 (MNK2): 646 nM
